Laboratory results published in patent publication US11179397B2, “Imidazopyrimidine derivatives” (Gilead Sciences, Inc., priority 2018, dated 2021).
Where two headings read alike, the source gives them in different places.

Assays:
[1] = molecular target: SHP-2 full length protein (Homo sapiens (Human), UniProt Q06124); assay: SHP-2 biochemical DiFMUP pseudosubstrate-fluorogenic assay; conditions: 0.2 nM SHP-2, 1 μM IRS-1 activator peptide, 50 μM DiFMUP; read-out: SHP2 IC50
Outline: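 In-house recombinant full-length SHP-2 preincubated 90 min at room temperature with compounds (1:3 series, 10,000–0.005 nM), then DiFMUP substrate added at 50 μM final for 30 min more. Fluorescence normalised to DMSO wells (100%) and IC50 derived by curve fitting.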

NCI-H358 cells = assay: NCI-H358 3D tumor spheroid growth inhibition; format: cell-based; conditions: Homo sapiens, NCI-H358, 168 h, read-out: H358 EC50
Outline: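 Cells seeded at 1000/well in ultra-low-attachment plates at 37 °C, 5% CO2 to form spheroids, then incubated a further 7 days with compounds. Viability by 3D CellTiter Glo luminescence; % inhibition versus DMSO wells, with normalized cellular IC50 reported as EC50.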

[2] = 3D spheroids, 7 days, 3D CellTiter Glo, cellular IC50 designated EC50

Sequence of SHP-2 full length protein (Q06124 whole entry): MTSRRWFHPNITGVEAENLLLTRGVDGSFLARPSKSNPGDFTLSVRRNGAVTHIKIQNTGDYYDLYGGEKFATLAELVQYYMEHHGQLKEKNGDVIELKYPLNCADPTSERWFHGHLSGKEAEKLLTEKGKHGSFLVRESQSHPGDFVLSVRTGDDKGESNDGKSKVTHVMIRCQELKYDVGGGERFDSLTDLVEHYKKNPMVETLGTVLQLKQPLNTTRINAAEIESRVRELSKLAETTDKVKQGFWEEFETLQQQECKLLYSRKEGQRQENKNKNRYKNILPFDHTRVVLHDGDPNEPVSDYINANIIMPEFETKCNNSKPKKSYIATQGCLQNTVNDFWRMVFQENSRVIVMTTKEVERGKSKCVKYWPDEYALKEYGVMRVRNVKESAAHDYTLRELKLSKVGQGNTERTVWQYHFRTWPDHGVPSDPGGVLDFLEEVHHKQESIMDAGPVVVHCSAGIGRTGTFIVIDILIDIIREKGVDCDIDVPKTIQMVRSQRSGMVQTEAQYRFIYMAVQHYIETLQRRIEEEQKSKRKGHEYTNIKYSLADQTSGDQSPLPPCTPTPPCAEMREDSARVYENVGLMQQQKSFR

For `C[C@@H]1OCC2(CCN(c3ncc(Sc4cc(N)nc5ccccc45)c4nccn34)CC2)[C@@H]1N` [Example 111, (3S,4S)-8-(8-((2-aminoquinolin-4-yl)thio)imidazo[1,2-c]pyrimidin-5-yl)-3-methyl-2-oxa-8-azaspiro[4.5]decan-4-amine], the IC50 [1] was 7.1 nM and the EC50 (NCI-H358 cells; [2]) was 170 nM.

Work on `CC(=O)Nc1cccc2c(Sc3cnc(N4CCC5(CC4)CO[C@@H](C)[C@H]5N)n4ccnc34)ccnc12` [Example 112, N-(4-((5-((3S,4S)-4-amino-3-methyl-2-oxa-8-azaspiro[4.5]decan-8-yl)imidazo[1,2-c]pyrimidin-8-yl)thio)quinolin-8-yl)acetamide] yielded an IC50 [1] of 10 nM and an EC50 (NCI-H358 cells; [2]) of 56 nM.

`C[C@@H]1OCC2(CCN(c3ncc(Sc4ccnc5c(C(N)=O)cccc45)c4nccn34)CC2)[C@@H]1N` [Example 113, 4-((5-((3S,4S)-4-amino-3-methyl-2-oxa-8-azaspiro[4.5]decan-8-yl)imidazo[1,2-c]pyrimidin-8-yl)thio)quinoline-8-carboxamide] showed an IC50 [1] of 11 nM and an EC50 (NCI-H358 cells; [2]) of 340 nM.

`C[C@@H]1OCC2(CCN(c3ncc(Sc4ccnc5ccccc45)c4nccn34)CC2)[C@@H]1N` [Example 114, (3S,4S)-3-methyl-8-(8-(quinolin-4-ylthio)imidazo[1,2-c]pyrimidin-5-yl)-2-oxa-8-azaspiro[4.5]decan-4-amine] showed an IC50 [1] of 6.8 nM and an EC50 (NCI-H358 cells; [2]) of 64 nM.

Compound `C[C@@H]1OCC2(CCN(c3ncc(Sc4ccnc5ccc(F)cc45)c4nccn34)CC2)[C@@H]1N` [Example 115, (3S,4S)-8-(8-((6-fluoroquinolin-4-yl)thio)imidazo[1,2-c]pyrimidin-5-yl)-3-methyl-2-oxa-8-azaspiro[4.5]decan-4-amine] has an IC50 [1] of 8.4 nM and an EC50 (NCI-H358 cells; [2]) of 90 nM.

`C[C@@H]1OCC2(CCN(c3ncc(Sc4ccnc5cc(F)ccc45)c4nccn34)CC2)[C@@H]1N` [Example 116, (3S,4S)-8-(8-((7-fluoroquinolin-4-yl)thio)imidazo[1,2-c]pyrimidin-5-yl)-3-methyl-2-oxa-8-azaspiro[4.5]decan-4-amine] showed an IC50 [1] of 8 nM and an EC50 (NCI-H358 cells; [2]) of 72 nM.

With `C[C@@H]1OCC2(CCN(c3ncc(Sc4ncnc5ccccc45)c4nccn34)CC2)[C@@H]1N` [Example 117, (3S,4S)-3-methyl-8-(8-(quinazolin-4-ylthio)imidazo[1,2-c]pyrimidin-5-yl)-2-oxa-8-azaspiro[4.5]decan-4-amine] the IC50 [1] was greater than 10000 nM and the EC50 (NCI-H358 cells; [2]) was greater than 12500 nM.

`NCC1CCN(c2ncc(Sc3cccc(Cl)c3Cl)c3nccn23)CC1` [Example 119, (1-(8-((2,3-dichlorophenyl)thio)imidazo[1,2-c]pyrimidin-5-yl)piperidin-4-yl)methanamine] showed an IC50 [1] of 73 nM and an EC50 (NCI-H358 cells; [2]) of 2200 nM.

Compound `C[C@@H]1OCC2(CCN(c3ncc(Sc4ccc(C(N)=O)c5ccccc45)c4nccn34)CC2)[C@@H]1N` [Example 120, 4-((5-((3S,4S)-4-amino-3-methyl-2-oxa-8-azaspiro[4.5]decan-8-yl)imidazo[1,2-c]pyrimidin-8-yl)thio)-1-naphthamide] has an IC50 [1] of 26 nM and an EC50 (NCI-H358 cells; [2]) of 500 nM.

For `Nc1nccc(Sc2cnc(N3CCC4(CC3)Cc3ccccc3[C@H]4N)n3ccnc23)c1Cl` [Example 121, (S)-1′-(8-((2-amino-3-chloropyridin-4-yl)thio)imidazo[1,2-c]pyrimidin-5-yl)-1,3-dihydrospiro[indene-2,4′-piperidin]-1 amine], the IC50 [1] was 4.8 nM and the EC50 (NCI-H358 cells) was 4.2 nM.

`C[C@@H]1OCC2(CCN(c3ncc(Sc4ccnc5c(F)cccc45)c4nccn34)CC2)[C@@H]1N` [Example 122, (3S,4S)-8-(8-((8-fluoroquinolin-4-yl)thio)imidazo[1,2-c]pyrimidin-5-yl)-3-methyl-2-oxa-8-azaspiro[4.5]decan-4-amine] gave an IC50 [1] of 9.1 nM and an EC50 (NCI-H358 cells; [2]) of 70 nM.

Compound `COc1ccc2c(Sc3cnc(N4CCC5(CC4)CO[C@@H](C)[C@H]5N)n4ccnc34)ccnc2c1` [Example 123, (3S,4S)-8-(8-((7-methoxyquinolin-4-yl)thio)imidazo[1,2-c]pyrimidin-5-yl)-3-methyl-2-oxa-8-azaspiro[4.5]decan-4-amine] has an IC50 [1] of 6.8 nM and an EC50 (NCI-H358 cells; [2]) of 95 nM.

`NC1Cc2ccccc2C12CCN(c1ncc(Sc3cccc(Cl)c3Cl)c3nccn13)CC2` (centres unmarked) [Example 124, 1′-(8-((2,3-dichlorophenyl)thio)imidazo[1,2-c]pyrimidin-5-yl)-2,3-dihydrospiro[indene-1,4′-piperidin]-2-amine] gave an IC50 [1] of 23 nM and an EC50 (NCI-H358 cells; [2]) of 750 nM.

For `C[C@@H]1OCC2(CCN(c3ncc(Sc4ccnc5cnccc45)c4nccn34)CC2)[C@@H]1N` [Example 126, (3S,4S)-8-(8-((1,7-naphthyridin-4-yl)thio)imidazo[1,2-c]pyrimidin-5-yl)-3-methyl-2-oxa-8-azaspiro[4.5]decan-4-amine], the IC50 [1] was 15 nM and the EC50 (NCI-H358 cells; [2]) was 120 nM.

`C[C@@H]1OCC2(CCN(c3ncc(Sc4ccnc5ccc(C#N)cc45)c4nccn34)CC2)[C@@H]1N` [Example 127, 4-((5-((3S,4S)-4-amino-3-methyl-2-oxa-8-azaspiro[4.5]decan-8-yl)imidazo[1,2-c]pyrimidin-8-yl)thio)quinoline-6-carbonitrile] showed an IC50 [1] of 30 nM and an EC50 (NCI-H358 cells; [2]) of 270 nM.

With `C[C@@H]1OCC2(CCN(c3ncc(Sc4ccnc5cccnc45)c4nccn34)CC2)[C@@H]1N` [Example 128, (3S,4S)-8-(8-((1,5-naphthyridin-4-yl)thio)imidazo[1,2-c]pyrimidin-5-yl)-3-methyl-2-oxa-8-azaspiro[4.5]decan-4-amine] the IC50 [1] was 14 nM and the EC50 (NCI-H358 cells; [2]) was 59 nM.

For `C[C@@H]1OCC2(CCN(c3ncc(Sc4cccc5ncccc45)c4nccn34)CC2)[C@@H]1N` [Example 129, (3S,4S)-3-methyl-8-(8-(quinolin-5-ylthio)imidazo[1,2-c]pyrimidin-5-yl)-2-oxa-8-azaspiro[4.5]decan-4-amine], the IC50 [1] was 10 nM and the EC50 (NCI-H358 cells; [2]) was 150 nM.

Compound `C[C@@H]1OCC2(CCN(c3ncc(Sc4ccnc5[nH]ccc45)c4nccn34)CC2)[C@@H]1N` [Example 130, (3S,4S)-8-(8-((1H-pyrrolo[2,3-b]pyridin-4-yl)thio)imidazo[1,2-c]pyrimidin-5-yl)-3-methyl-2-oxa-8-azaspiro[4.5]decan-4-amine] has an IC50 [1] of 5.7 nM and an EC50 (NCI-H358 cells; [2]) of 57 nM.

`C[C@@H]1OCC2(CCN(c3ncc(Sc4ccnc5[nH]cnc45)c4nccn34)CC2)[C@@H]1N` [Example 131, (3S,4S)-8-(8-((3H-imidazo[4,5-b]pyridin-7-yl)thio)imidazo[1,2-c]pyrimidin-5-yl)-3-methyl-2-oxa-8-azaspiro[4.5]decan-4-amine] gave an IC50 [1] of 27 nM and an EC50 (NCI-H358 cells; [2]) of 2100 nM.

Work on `COc1ccc2nccc(Sc3cnc(N4CCC5(CC4)CO[C@@H](C)[C@H]5N)n4ccnc34)c2c1` [Example 132, (3S,4S)-8-(8-((6-methoxyquinolin-4-yl)thio)imidazo[1,2-c]pyrimidin-5-yl)-3-methyl-2-oxa-8-azaspiro[4.5]decan-4-amine] yielded an IC50 [1] of 22 nM and an EC50 (NCI-H358 cells; [2]) of 290 nM.

`Cc1nc(N2CCC3(CC2)Cc2ccccc2[C@H]3N)n2ccnc2c1-c1cccc(Cl)c1Cl` [Example 135, (S)-1′-(8-(2,3-dichlorophenyl)-7-methylimidazo[1,2-c]pyrimidin-5-yl)-1,3-dihydrospiro[indene-2,4′-piperidin]-1-amine] was tested, and the IC50 [1] was 5.4 nM and the EC50 (NCI-H358 cells; [2]) was 14 nM.

With `C[C@@H]1OCC2(CCN(c3ncc(Sc4cccc5ccccc45)c4nccn34)CC2)[C@@H]1N` [Example 136, (3S,4S)-3-methyl-8-(8-(naphthalen-1-ylthio)imidazo[1,2-c]pyrimidin-5-yl)-2-oxa-8-azaspiro[4.5]decan-4-amine] the IC50 [1] was 4.3 nM and the EC50 (NCI-H358 cells; [2]) was 130 nM.

`N[C@@H]1c2ccccc2CC12CCN(c1ncc(Sc3ccnc4sccc34)c3nccn13)CC2` [Example 138, (S)-1′-(8-(thieno[2,3-b]pyridin-4-ylthio)imidazo[1,2-c]pyrimidin-5-yl)-1,3-dihydrospiro[indene-2,4′-piperidin]-1-amine] showed an IC50 [1] of 2.2 nM and an EC50 (NCI-H358 cells; [2]) of 11 nM.

Compound `N[C@@H]1c2ccccc2CC12CCN(c1ncc(Sc3ccnc4ccsc34)c3nccn13)CC2` [Example 139, (S)-1′-(8-(thieno[3,2-b]pyridin-7-ylthio)imidazo[1,2-c]pyrimidin-5-yl)-1,3-dihydrospiro[indene-2,4′-piperidin]-1-amine] has an IC50 [1] of 1.7 nM and an EC50 (NCI-H358 cells; [2]) of 8.9 nM.

For `N[C@@H]1c2ccccc2CC12CCN(c1ncc(Sc3cccc4cnsc34)c3nccn13)CC2` [Example 140, (S)-1′-(8-(benzo[d]isothiazol-7-ylthio)imidazo[1,2-c]pyrimidin-5-yl)-1,3-dihydrospiro[indene-2,4′-piperidin]-1-amine], the IC50 [1] was 2.6 nM and the EC50 (NCI-H358 cells; [2]) was 18 nM.

With `CSc1ccccc1Sc1cnc(N2CCC3(CC2)Cc2ccccc2[C@H]3N)n2ccnc12` [Example 141, (S)-1′-(8-((2-(methylthio)phenyl)thio)imidazo[1,2-c]pyrimidin-5-yl)-1,3-dihydrospiro[indene-2,4′-piperidin]-1-amine] the IC50 [1] was 1.8 nM and the EC50 (NCI-H358 cells; [2]) was 30 nM.

`CCSc1ccccc1Sc1cnc(N2CCC3(CC2)Cc2ccccc2[C@H]3N)n2ccnc12` [Example 142, (S)-1′-(8-((2-(ethylthio)phenyl)thio)imidazo[1,2-c]pyrimidin-5-yl)-1,3-dihydrospiro[indene-2,4′-piperidin]-1-amine] gave an IC50 [1] of 4 nM and an EC50 (NCI-H358 cells; [2]) of 60 nM.

`CC(C)Sc1ccccc1Sc1cnc(N2CCC3(CC2)Cc2ccccc2[C@H]3N)n2ccnc12` [Example 143, (S)-1′-(8-((2-(isopropylthio)phenyl)thio)imidazo[1,2-c]pyrimidin-5-yl)-1,3-dihydrospiro[indene-2,4′-piperidin]-1-amine] gave an IC50 [1] of 11 nM and an EC50 (NCI-H358 cells; [2]) of 260 nM.
